IC50 data for six compounds are collected here from patent US6677368B2, “4-aryl substituted indolinones” (Sugen, Inc., priority 2000, dated 2004).

For one assay, the target named is T1, PDGFR (UniProt P09619).
T1 construct: PDGFR-β expressing NIH 3T3 cell lysate (SUGEN, Inc.)
Description: PDGFR bioassay (ELISA, in vitro kinase activity). Type of assay: biochemical. Conditions: PDGFR-β expressing NIH 3T3 cell lysate, 20 μM ATP. As to the method: This assay is used to the in vitro kinase activity of PDGFR in an ELISA assay.
1. Corning 96-well ELISA plates
2. 28D4C10 monoclonal anti-PDGFR antibody (SUGEN, Inc.).
5. Blocking Buffer (same as for EGFR bioassay).
6. PDGFR-β expressing NIH 3T3 cell lysate (SUGEN, Inc.).
11. Kinase buffer phosphorylation mix: for 10 ml, mix 250 μl 1M TRIS, 200 μl 5M NaCl, 100 μl 1M MnCl2 and 501l 100 mM Triton X-100 in enough dH2O to make 10 ml.
12. NUNC 96-well V bottom polypropylene plates.
14. Rabbit polyclonal anti-phosphotyrosine serum (SUGEN, Inc.).
15. Goat anti-rabbit IgG peroxidase conjugate (Biosource Cat. No. ALI0404).
17. Hydrogen peroxide, 30% solution.
1. Coat Corning 96 well ELISA plates with […] 28D4C 10 in 100 μl PBS per well, hold overnight at 4° C.
2. Remove unbound 28D4C10 from wells by inverting plate to remove liquid. Wash 1× with dH2O. Pat the plate on a paper towel to remove excess liquid.
3. Add 150 μl of Blocking Buffer to each well. Incubate for 30 min. at room temperature with shaking.
4. Wash plate 3× with deionized water, then once with TBST. Pat plate on a paper towel to remove excess liquid and bubbles.
5. Dilute lysate in HNTG (10 μg lysate/100 μl HNTG).
6. Add 100 μl of diluted lysate to each well. Shake at room temperature for 60 min.
7. Wash plates as described in Step 4.
8. Add 80 μl working kinase buffer mix to ELISA plate containing captured PDGFR.
9. Dilute test compound 1:10 in TBS in 96-well polypropylene plates.
10. Add 10 μl diluted test compound to -ELISA plate. To control wells, add 10 μl TBS+10% DMSO. Incubate with shaking for 30 minutes at room temperature.
11. Add 10 μl ATP directly to all wells except negative control well (final well volume should be approximately 100 μl with 20 μM ATP in each well.) Incubate 30 minutes with shaking.
12. Stop reaction by adding 10 μl of EDTA solution to each well.
13. Wash 4× with deionized water, twice with TBST.
14. Add 100 μl anti-phosphotyrosine (1:3000 dilution in TBST) per well.
Incubate with shaking for 30-45 min. at room temperature.
16. Add 100 μl Biosource Goat anti-rabbit IgG peroxidase conjugate (1:2000 dilution in TBST) to each well. Incubate with shaking for 30 min. at room temperature.
18. Add 100 μl of ABTS/H2O2 solution to each well.
19. Incubate 10 to 30 minutes with shaking. Remove any bubbles.
20. If necessary stop reaction with the addition of 100 μl 0.2 M HCl per well.
21. Read assay on Dynatech MR7000 ELISA reader with test filter at 410 nM and reference filter at 630 nM.

A further assay concerns the target T2, SRC (Homo sapiens, UniProt P12931).
T2 construct: purchased UBI 14-117
Put plainly: Src transphosphorylation assay. Type of assay: biochemical. Particulars: recombinant human Src, poly(Glu-Tyr) substrate. The procedure:
Src Transphosphorylation Assay
This assay is used to screen for inhibitors of the tyrosine kinase Src.
1. Coating buffer: PBS containing sodium azide (0.2 mg/ml).
3. Wash buffer: PBS containing 0.05% v/v Tween 20 (PBS-TWEEN)
5. ATP (40 [M)+MgCl2 (80 mM) in distilled water.
6. MgCl2 (80 mM) in distilled water (for no ATP blanks).
7. Test compounds, 10 mM in DMSO.
8. Assay Buffer: 100 mM HEPES, pH 7.4, containing 2 mM DTT, 0.2 mM sodium orthovanadate and 0.2 mgs/ml BSA.
9. Partially purified recombinant human Src (UBI (14-117)
10. Anti-phosphotyrosine (SUGEN rabbit polyclonal anti-PY).
11. HRP-linked goat anti-rabbit Ig (Biosource International #6430)
12. HRP substrate ABTS or Pierce Peroxidase substrate.
13. Corning ELISA plates.
1. Coat plates with 100 μl of 20 μg/ml poly(Glu-Tyr) (Sigma Cat. No.P0275) containing 0.01% sodium azide. Hold overnight at 4° C.
2. Block with 1% BSA at 100 μl/well for one hour at room temperature.
3. Plate test compounds (10 mM in DMSO) at 2 ul/well on a Costar plate ready for dilution with dH2O and plating to reaction plates.
4. Dilute Src kinase 1:10,000 in Reaction Buffer, for 5 plates prepare 25 ml as follows: 2.5 mls 1M HEPES pH7.4 (stored sterile at 4° C.), 21.85 ml distilled water, 0.1 ml 5% BSA, 0.5 ml 10 mM sodium orthovanadate (stored sterile at 4° C.), 50 μl 1.0M DTT (stored frozen at […]), and 2.5 μl Src Kinase (stored frozen at −80° C.).
5. Add 48 μl of distilled water to the 2 ∥l of each compound in the dilution plate then add 25 μl/well of this to the reaction plate.
6. Add 50 μl of […] to each reaction buffer well and then 25 μl ATP-MgCl2/well (MgCl2 only to no ATP blanks). Incubate at room temperature for 15 minutes on plate shaker. Stop reaction by adding 25 μl of 0.5M EDTA to each well.
7. Wash 4× with PBS-TWEEN.
8. […] Incubate with continuous shaking at room temperature for one hour.
9. Wash plates 4× with PBS-TWEEN.
10. Add 100 μl HPP-linked Ig (1:5,000) in PBS-TWEEN containing 0.5% BSA, 0.025% Non-fat milk powder, 100 μM sodium orthovanadate. Incubate with shaking at room temperature for one hour.
11. Wash plates 4× with PBS-TWEEN and then once with PBS.
12. Develop plate using ABTS or other peroxidase substrate.

T2 sequence (P12931 whole entry): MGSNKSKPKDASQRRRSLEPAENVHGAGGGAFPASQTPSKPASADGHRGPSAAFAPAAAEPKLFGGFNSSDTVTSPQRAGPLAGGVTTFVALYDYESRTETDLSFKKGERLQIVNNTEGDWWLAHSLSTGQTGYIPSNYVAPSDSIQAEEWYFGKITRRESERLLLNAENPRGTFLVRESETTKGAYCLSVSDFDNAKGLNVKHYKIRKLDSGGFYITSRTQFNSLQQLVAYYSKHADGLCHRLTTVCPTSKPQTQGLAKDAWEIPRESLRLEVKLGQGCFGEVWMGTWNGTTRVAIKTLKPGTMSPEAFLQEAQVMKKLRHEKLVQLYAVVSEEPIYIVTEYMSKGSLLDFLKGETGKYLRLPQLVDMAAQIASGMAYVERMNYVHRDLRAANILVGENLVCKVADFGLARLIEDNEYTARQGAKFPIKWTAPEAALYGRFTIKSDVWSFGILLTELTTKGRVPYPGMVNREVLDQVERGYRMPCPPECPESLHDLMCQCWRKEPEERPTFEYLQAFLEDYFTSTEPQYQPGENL

In the case of `CCN(CC)CCNC(=O)c1c(C)[nH]c(/C=C2\C(=O)Nc3cccc(-c4cccc(Br)c4)c32)c1C` [Example 63, 5-[4-(3-Bromo-phenyl)-2-oxo-1,2-dihydro-indol-3-ylidenemethyl]-2,4-dimethyl-1H-pyrrole-3-carboxylic Acid (2-Diethylamino-ethyl)-amide], the values for the IC50 at PDGFR and at SRC were 2.18 µM and 1.14 µM, respectively.

`Cc1[nH]c(/C=C2\C(=O)Nc3cccc(-c4ccccc4F)c32)c(C)c1C(=O)N1CCN(C)CC1` [Example 93, 3-[3,5-Dimethyl-4-(4-methyl-piperazine-1-carbonyl)-1H-pyrrol-2-ylmethylene]-4-(2-fluoro-phenyl)-1,3-dihydro-indol-2-one]: the IC50 against PDGFR was 3.76 µM; at SRC, greater than 20 µM.

For `Cc1cc(C(=O)NCCn2ccnn2)c(/C=C2\C(=O)Nc3cccc(-c4ccccc4F)c32)[nH]1` [Example 99, 2-[4-(2-Fluoro-phenyl)-2-oxo-1,2-dihydro-indol-3-ylidenemethyl]-5-methyl-1H-pyrrole-3-carboxylic Acid (2-[1,2,3]Triazol-1-yl-ethyl)-amide], the IC50 against PDGFR and at SRC was greater than 20 µM in each case.

Take `Cc1[nH]c(/C=C2\C(=O)Nc3cccc(-c4cccc(C(F)(F)F)c4)c32)c(C)c1C(=O)N1CCN(C)CC1` [Example 104, 3-[3,5-Dimethyl-4-(4-methyl-piperazine-1-carbonyl)-H-pyrrol-2-ylmethylene]-4-(3-trifluoromethyl-phenyl)-1,3-dihydro-indol-2-one]: the IC50 on PDGFR amounted to 19 µM; on SRC, 7.09 µM.

Consider `Cc1cc(C(=O)NCCN2CCCC2)c(/C=C2\C(=O)Nc3cccc(-c4ccc(F)c(Cl)c4)c32)[nH]1` [Example 119, 2-[4-(3-Chloro-4-fluoro-phenyl)-2-oxo-1,2-dihydro-indol-3-ylidenemethyl]-5-methyl-1H-pyrrole-3-carboxylic Acid (2-Pyrrolidin-1-yl-ethyl)-amide], for which the IC50 on PDGFR came to 9.87 µM; on SRC, 8.61 µM.

Turning to `CCN(CC)CCNC(=O)c1c(C)[nH]c(/C=C2\C(=O)Nc3cccc(-c4ccc(OC(F)(F)F)cc4)c32)c1C` [Example 140, 2,4-Dimethyl-5-[2-oxo-4-(4-trifluoromethoxy-phenyl)-1,2-dihydro-indol-3-ylidenemethyl]-1H-pyrrole-3-carboxylic Acid (2-Diethylamino-ethyl)-amide], the IC50 on PDGFR is greater than 20 µM; on SRC, 4.31 µM.
